Source: patent US11331364B2, “Use for JNK inhibitor molecules for treatment of various diseases” (Xigen Inflammation Ltd., priority 2014, dated 2022)
Where two headings read alike, the source gives them in different places. Square brackets hold non-standard residues; d marks the D form. Peptide text beside a SMILES is read from it.

Tests used:
hJNK1 = target: T1, hJNK1 (Homo sapiens, UniProt P45983); test: hJNK1 | IC50
T1 construct: His; purchased Upstate 14-327
Text: (§1) Table printed on a drawing sheet, Fig. 4
Head of the field: hJNK1 | IC50
(§2) The patent's description of the figure: FIG. 4: Table illustrating the inhibitory efficacy of several JNK inhibitors according to the present invention, which are fusion proteins of a JNK inhibitory (poly-)peptide sequence and a transporter sequence. Given are the IC50 values in the nM range, the respective standard error of the mean (SEM) and the number of experiments performed (n).
(§3) First copying reader's note: The sheet prints no unit for IC50 (the description says nM range); decimal commas are used, except for three IC50 cells printed with a point (3820.81, 5340.33, 8130.86).
Where the first naming reader finds the target: head: hJNK1 | IC50

hJNK3 = hJNK3 (Homo sapiens, UniProt P53779); test: hJNK3 | IC50
Sequence of hJNK3 (P53779 whole entry, looked up): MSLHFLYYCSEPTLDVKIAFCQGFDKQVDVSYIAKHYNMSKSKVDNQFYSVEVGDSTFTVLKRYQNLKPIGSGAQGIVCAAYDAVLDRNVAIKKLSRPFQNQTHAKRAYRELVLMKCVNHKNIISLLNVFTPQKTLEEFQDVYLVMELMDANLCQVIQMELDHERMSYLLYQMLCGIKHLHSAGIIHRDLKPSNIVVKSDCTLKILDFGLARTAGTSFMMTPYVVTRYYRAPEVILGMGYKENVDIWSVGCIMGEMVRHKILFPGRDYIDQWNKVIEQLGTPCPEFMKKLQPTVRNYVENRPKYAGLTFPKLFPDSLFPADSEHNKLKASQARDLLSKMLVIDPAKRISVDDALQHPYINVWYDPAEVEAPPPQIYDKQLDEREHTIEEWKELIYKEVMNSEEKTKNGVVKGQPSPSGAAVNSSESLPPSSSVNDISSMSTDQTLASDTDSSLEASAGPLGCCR
Text: as §1
Head of the field: hJNK3 | IC50
as §2, §3
Where the first naming reader finds the target: head: hJNK3 | IC50

hJNK2 = hJNK2 (Homo sapiens, UniProt P45984); test: hJNK2 | IC50
Sequence of hJNK2 (P45984 whole entry, looked up): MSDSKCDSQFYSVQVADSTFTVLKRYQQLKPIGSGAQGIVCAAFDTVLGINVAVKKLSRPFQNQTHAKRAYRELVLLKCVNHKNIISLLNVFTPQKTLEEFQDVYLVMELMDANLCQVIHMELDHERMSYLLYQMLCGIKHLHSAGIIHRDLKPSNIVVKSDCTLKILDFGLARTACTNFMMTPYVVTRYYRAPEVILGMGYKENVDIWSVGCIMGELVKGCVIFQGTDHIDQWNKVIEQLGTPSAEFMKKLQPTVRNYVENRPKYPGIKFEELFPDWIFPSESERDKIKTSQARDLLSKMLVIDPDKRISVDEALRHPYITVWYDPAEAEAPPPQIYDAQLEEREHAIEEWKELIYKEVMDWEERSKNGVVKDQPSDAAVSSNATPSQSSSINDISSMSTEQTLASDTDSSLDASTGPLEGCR
Text: as §1
Head of the field: hJNK2 | IC50
as §2, §3
Where the first naming reader finds the target: head: hJNK2 | IC50

T1 sequence (P45983 whole entry, looked up): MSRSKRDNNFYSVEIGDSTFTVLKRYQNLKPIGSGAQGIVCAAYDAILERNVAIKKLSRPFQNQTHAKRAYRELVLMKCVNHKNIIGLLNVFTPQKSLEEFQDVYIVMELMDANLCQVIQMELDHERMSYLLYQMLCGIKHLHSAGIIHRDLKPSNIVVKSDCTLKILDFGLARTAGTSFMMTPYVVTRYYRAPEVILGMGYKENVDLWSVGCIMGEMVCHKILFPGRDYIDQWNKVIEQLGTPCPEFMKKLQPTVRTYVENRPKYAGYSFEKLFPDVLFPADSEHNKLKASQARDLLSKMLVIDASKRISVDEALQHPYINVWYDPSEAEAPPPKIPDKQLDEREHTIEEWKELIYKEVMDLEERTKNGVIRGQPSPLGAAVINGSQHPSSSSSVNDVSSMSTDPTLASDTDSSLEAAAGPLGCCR

SMILES	IC50 (hJNK1; read-out: hJNK1 | IC50) [nM]	IC50 (hJNK3; read-out: hJNK3 | IC50) [nM]	IC50 (hJNK2; read-out: hJNK2 | IC50) [nM]	IC50 (hJNK1) [nM]	IC50 (hJNK3) [nM]	IC50 (hJNK2) [nM]
CC(C)C[C@H](NC(=O)[C@H](C)NC(=O)[C@H](CCCCN)NC(=O)[C@H](CCCNC(=N)N)NC(=O)[C@H](CCCCN)NC(=O)CNC(=O)[C@@H](CCCNC(=N)N)NC(=O)[C@H](CCCNC(=N)N)NC(=O)[C@H](CCCNC(=N)N)NC(=O)[C@H](CCC(N)=O)NC(=O)[C@@H](CCCNC(=N)N)NC(=O)[C@H](CCCNC(=N)N)NC(=O)[C@H](CCCCN)NC(=O)[C@H](CCCCN)NC(=O)[C@H](N)CCCNC(=N)N)C(=O)N[C@H](CCCNC(=N)N)C(=O)N[C@@H](CC(C)C)C(=O)N[C@H](Cc1ccccc1)C(N)=O [SEQ ID NO: 189, rKKRrQRRrGKRKALrLf] (H-[dR]KKR[dR]QRR[dR]GKRKAL[dR]L[dF]-NH2)	–	–	–	22300	128	176
CC(C)C[C@H](NC(=O)[C@H](C)NC(=O)[C@H](CCCCN)NC(=O)[C@H](CCCNC(=N)N)NC(=O)[C@@H](CCCNC(=N)N)NC(=O)[C@H](CCCNC(=N)N)NC(=O)[C@H](CCCNC(=N)N)NC(=O)[C@H](CCC(N)=O)NC(=O)[C@@H](CCCNC(=N)N)NC(=O)[C@H](CCCNC(=N)N)NC(=O)[C@H](CCCCN)NC(=O)[C@H](CCCCN)NC(=O)[C@H](N)CCCNC(=N)N)C(=O)N[C@H](CCCNC(=N)N)C(=O)N[C@@H](CC(C)C)C(=O)N[C@H](Cc1ccccc1)C(N)=O [SEQ ID NO: 190, rKKRrQRRrRKALrLf] (H-[dR]KKR[dR]QRR[dR]RKAL[dR]L[dF]-NH2)	8970	159	148	–	–	–

Continued by falling IC50 (hJNK1; read-out: hJNK1 | IC50), values first:

IC50 (hJNK1; read-out: hJNK1 | IC50) [nM]	IC50 (hJNK3; read-out: hJNK3 | IC50) [nM]	IC50 (hJNK2; read-out: hJNK2 | IC50) [nM]	SMILES	IC50 (hJNK1) [nM]	IC50 (hJNK3) [nM]	IC50 (hJNK2) [nM]
1420	36.1	98.1	CC(C)C[C@H](NC(=O)[C@H](C)NC(=O)[C@H](CCCCN)NC(=O)[C@H](CCCNC(=N)N)NC(=O)[C@H](CCCCN)NC(=O)CNC(=O)[C@@H](CCCNC(=N)N)NC(=O)[C@H](CCCNC(=N)N)NC(=O)[C@H](CCCNC(=N)N)NC(=O)[C@H](CCC(N)=O)NC(=O)[C@@H](CCCNC(=N)N)NC(=O)[C@H](CCCNC(=N)N)NC(=O)[C@H](CCCCN)NC(=O)[C@H](CCCCN)NC(=O)[C@H](N)CCCNC(=N)N)C(=O)N[C@@H](CCCCN)C(=O)N[C@@H](CC(C)C)C(=O)N[C@H](Cc1ccccc1)C(N)=O [SEQ ID NO: 188] (H-[dR]KKR[dR]QRR[dR]GKRKALKL[dF]-NH2)	–	–	–
1020	44.2	52.6	CC(C)C[C@H](NC(=O)[C@H](CC(N)=O)NC(=O)[C@H](CC(C)C)NC(=O)[C@@H](NC(=O)[C@@H](CCC(N)=O)NC(=O)[C@@H]1CCCN1C(=O)[C@H](CCCNC(=N)N)NC(=O)[C@@H](CCCCN)NC(=O)[C@@H]1CCCN1C(=O)[C@H](CCCNC(=N)N)NC(=O)[C@@H](CCCNC(=N)N)NC(=O)[C@H](CCCNC(=N)N)NC(=O)[C@H](CCCNC(=N)N)NC(=O)[C@H](CCC(N)=O)NC(=O)[C@@H](CCCNC(=N)N)NC(=O)[C@H](CCCNC(=N)N)NC(=O)[C@H](CCCCN)NC(=O)[C@H](CCCCN)NC(=O)[C@H](N)CCCNC(=N)N)[C@@H](C)O)C(=O)N[C@H](Cc1ccccc1)C(N)=O [SEQ ID NO: 186, rKKRrQRRrRPkRPqTLNLf] (H-[dR]KKR[dR]QRR[dR]RP[dK]RP[dQ]TLNL[dF]-NH2)	–	–	–
594	25.4	37.9	CC(C)C[C@H](NC(=O)[C@H](CC(N)=O)NC(=O)[C@H](CC(C)C)NC(=O)[C@@H](NC(=O)[C@@H](CCCCN)NC(=O)[C@@H]1CCCN1C(=O)[C@H](CCCNC(=N)N)NC(=O)[C@@H](CCCCN)NC(=O)[C@@H]1CCCN1C(=O)[C@H](CCCNC(=N)N)NC(=O)[C@@H](CCCNC(=N)N)NC(=O)[C@H](CCCNC(=N)N)NC(=O)[C@H](CCCNC(=N)N)NC(=O)[C@H](CCC(N)=O)NC(=O)[C@@H](CCCNC(=N)N)NC(=O)[C@H](CCCNC(=N)N)NC(=O)[C@H](CCCCN)NC(=O)[C@H](CCCCN)NC(=O)[C@H](N)CCCNC(=N)N)[C@@H](C)O)C(=O)N[C@H](Cc1ccccc1)C(N)=O [SEQ ID NO: 187, rKKRrQRRrRPkRPkTLNLf] (H-[dR]KKR[dR]QRR[dR]RP[dK]RP[dK]TLNL[dF]-NH2)	–	–	–
